Test results taken from US9050341B2, “Methods of treating drug resistant and other tumors by administering 6,7-dialkoxy quinazoline derivatives” (NATCO PHARMA LIMITED, priority 2009, dated 2015).

Legend:
Experiment in all cases: KinomeScan kinase profiling
Format in all cases: binding
ACVR1 = biological target: T1, ACVR1 (Homo sapiens, UniProt Q04771)
T1 construct: host or cells: E. coli host derived from BL21 (T7 phage lysate)
Excerpt: (§1) The kinases were ABL1(F317L), ABL1(H396P), ABL1(Q252H), ABL1(Y253F), ADCK3, ADCK4, ALK, ARK5, AXL, BLK, BRSK2, CDK7, CIT, CLK4, CSNK1D, CSNK1E, DAPK1, DAPK3, DCAMKL3, DMPK, EGFR, EGFR(E746-A750DEL), EGFR(G719C), EGFR(G719S), EGFR(L747-E749DEL, A750P), EGFR(L747-S752 DEL, P753S), EGFR(L747-T751DEL, Sin), EGFR(L858R), EGFR(L861Q), EGFR(S752-I759DEL), EPHA5, EPHA6, ERBB2, ERBB4, ERK3, ERK4, FGR, FLT3(D835H), FLT3(D835Y), FLT3(ITD), FLT3(N841 I), FRK, GAK, GCN2(KIN.DOM.2, S808G), HCK, IRAK3, JAK1(KIN.DOM.1), KIT, KIT(D816V), KIT(V559D), KIT(V559D,T670I), LCK, LOK, LTK, LYN, MAP3K3, MAP4K4, MAP4K5, MET, MINK, MKNK1, MKNK2, MST4, MYLK2, PDGFRB, PIM3, PKN2, PRKD1, PRKD2, PRKD3, PRKG1, RIPK2, RPS6KA4(KIN.DOM.2), SIK2, SLK, SNARK, SRC, STK36, TNIK, TNNI3K, TYK2(KIN.DOM.2).
(§2) Kinase assays: Assays were performed as described in Fabian et al. (2005) Nature Biotechnology, vol. 23, p. 329. Kinase-tagged T7 phage strains were grown in parallel in 24 or 96-well blocks in an E. coli host derived from the BL21 strain. E. coli were grown to log-phase and infected with T7 phage from a frozen stock (multiplicity of infection ˜0.1) and incubated with shaking at 32° C. until lysis (˜90 minutes). The lysates were centrifuged and filtered to remove cell debris. […] The liganded beads were blocked with excess biotin and washed with blocking buffer (SeaBlock (Pierce), 1% BSA, 0.05% Tween 20, 1 mM DTT) to remove unbound ligand and to reduce non-specific phage binding.
(§3) Test compounds were prepared as 40× stocks in DMSO and diluted into the aqueous environment. 2.5% DMSO was added to control assays lacking a test compound. All reactions were performed in polystyrene 96-well plates that had been pretreated with blocking buffer in a final volume of 0.04 ml. […] The phage titer in the eluates was measured by quantitative PCR.

AKT3 = biological target: T2, AKT3 (Homo sapiens, UniProt Q9Y243)
T2 construct: host or cells: E. coli host derived from BL21 (T7 phage lysate)
Excerpt: as §1, §2, §3

CAMK4 = biological target: T3, CAMK4 (Homo sapiens, UniProt Q16566)
T3 construct: host or cells: T7 phage in E. coli (BL21-derived)
Excerpt: as §1, §2, §3

CDK11 = biological target: T4, CDK11 (Homo sapiens, UniProt Q9BWU1)
T4 construct: host or cells: T7 phage in E. coli (BL21-derived)
Excerpt: as §1, §2, §3

ERBB2 = biological target: T5, ERBB2 (Homo sapiens, UniProt P04626)
T5 construct: host or cells: E. coli host derived from BL21, T7 phage lysate
Excerpt: as §1, §2, §3

FGFR3 = biological target: T6, FGFR3 (Homo sapiens, UniProt P22607)
T6 construct: host or cells: E. coli host derived from BL21, infected with T7 phage
Excerpt: as §1, §2, §3

GSK3A = biological target: T7, GSK3A (Homo sapiens, UniProt P49840)
T7 construct: host or cells: E. coli host derived from BL21, infected with T7 phage
Excerpt: as §1, §2, §3

HIPK1 = biological target: T8, HIPK1 (Homo sapiens, UniProt Q86Z02)
T8 construct: host or cells: E. coli host derived from BL21, infected with T7 phage
Excerpt: as §1, §2, §3

IKK-alpha = biological target: T9, IKK-alpha (Homo sapiens, UniProt O15111)
T9 construct: host or cells: T7 phage in E. coli host derived from BL21
Excerpt: as §1, §2, §3

LIMK1 = biological target: T10, LIMK1 (Homo sapiens, UniProt P53667)
T10 construct: host or cells: T7 phage in E. coli host derived from BL21
Excerpt: as §1, §2, §3

MERTK = biological target: T11, MERTK (Homo sapiens, UniProt Q12866)
T11 construct: host or cells: E. coli derived from BL21, infected with T7 phage
Excerpt: as §1, §2, §3

NEK9 = biological target: T12, NEK9 (Homo sapiens, UniProt Q8TD19)
T12 construct: host or cells: T7 phage in E. coli host derived from BL21
Excerpt: as §1, §2, §3

PIK3CD = biological target: T13, PIK3CD (Homo sapiens, UniProt O00329)
T13 construct: purchased Ambit Biosciences Corp (KinomeScan); host or cells: E. coli host derived from BL21, infected with T7 phage
Excerpt: as §1, §2, §3

PLK3 = biological target: T14, PLK3 (Homo sapiens, UniProt Q9H4B4)
T14 construct: purchased Ambit Biosciences Corp (KinomeScan); host or cells: E. coli host derived from BL21, infected with T7 phage
Excerpt: as §1, §2, §3

RET (V804M) = biological target: T15, RET (V804M) (Homo sapiens, UniProt P07949, V804M)
T15 construct: host or cells: E. coli host derived from BL21, T7 phage lysate
Excerpt: as §1, §2, §3

RIOK2 = biological target: T16, RIOK2 (Homo sapiens, UniProt Q9BVS4)
T16 construct: host or cells: E. coli host derived from BL21, T7 phage lysate
Excerpt: as §1, §2, §3

[1] = biological target: T17, RPS6KA5 (Kin.Dom.-2-C-terminal) (Homo sapiens, UniProt O75582)
T17 construct: RPS6KA5 (Kin.Dom.-2-C-terminal); host or cells: E. coli host derived from BL21, T7 phage lysate
Excerpt: as §1, §2, §3

SIK = biological target: T18, SIK (Homo sapiens, UniProt P57059)
T18 construct: host or cells: E. coli host derived from the BL21 strain, T7 phage lysate
Excerpt: as §1, §2, §3

TEC = biological target: T19, TEC (Homo sapiens, UniProt P42680)
T19 construct: host or cells: E. coli host derived from the BL21 strain, T7 phage lysate
Excerpt: as §1, §2, §3

TIE1 = biological target: T20, TIE1 (Homo sapiens, UniProt P35590)
T20 construct: host or cells: E. coli host derived from the BL21 strain, T7 phage lysate
Excerpt: as §1, §2, §3

TTK = biological target: T21, TTK (Homo sapiens, UniProt P33981)
T21 construct: purchased Ambit Biosciences Corp (KinomeScan); host or cells: E. coli host derived from the BL21 strain (T7 phage lysate)
Excerpt: as §1, §2, §3

[2] = biological target: T22, TYK2 (JH1domain-catalytic) (Homo sapiens, UniProt P29597)
T22 construct: TYK2 (JH1domain-catalytic); purchased Ambit Biosciences Corp (KinomeScan); host or cells: E. coli host derived from the BL21 strain (T7 phage lysate)
Excerpt: as §1, §2, §3

T9 sequence (O15111 whole entry): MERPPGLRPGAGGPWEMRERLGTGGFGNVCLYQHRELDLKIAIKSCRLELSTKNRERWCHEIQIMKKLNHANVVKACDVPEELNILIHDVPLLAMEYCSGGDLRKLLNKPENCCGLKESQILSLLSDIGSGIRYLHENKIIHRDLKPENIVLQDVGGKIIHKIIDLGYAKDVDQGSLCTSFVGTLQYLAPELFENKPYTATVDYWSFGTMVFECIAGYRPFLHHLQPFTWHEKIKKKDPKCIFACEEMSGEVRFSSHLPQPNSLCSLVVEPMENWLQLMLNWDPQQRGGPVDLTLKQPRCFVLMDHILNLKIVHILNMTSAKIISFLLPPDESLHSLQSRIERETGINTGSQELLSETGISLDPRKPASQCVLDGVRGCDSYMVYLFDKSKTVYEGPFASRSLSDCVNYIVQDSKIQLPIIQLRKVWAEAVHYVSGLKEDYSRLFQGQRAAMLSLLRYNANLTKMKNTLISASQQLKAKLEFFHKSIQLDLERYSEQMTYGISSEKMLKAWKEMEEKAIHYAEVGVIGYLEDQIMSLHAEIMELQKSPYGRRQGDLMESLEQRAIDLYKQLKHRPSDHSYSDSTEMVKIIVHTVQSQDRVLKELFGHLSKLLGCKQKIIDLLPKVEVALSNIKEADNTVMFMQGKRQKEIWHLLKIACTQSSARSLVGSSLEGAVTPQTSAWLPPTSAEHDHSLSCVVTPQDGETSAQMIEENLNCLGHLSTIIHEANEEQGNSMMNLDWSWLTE
T19 sequence (P42680 whole entry): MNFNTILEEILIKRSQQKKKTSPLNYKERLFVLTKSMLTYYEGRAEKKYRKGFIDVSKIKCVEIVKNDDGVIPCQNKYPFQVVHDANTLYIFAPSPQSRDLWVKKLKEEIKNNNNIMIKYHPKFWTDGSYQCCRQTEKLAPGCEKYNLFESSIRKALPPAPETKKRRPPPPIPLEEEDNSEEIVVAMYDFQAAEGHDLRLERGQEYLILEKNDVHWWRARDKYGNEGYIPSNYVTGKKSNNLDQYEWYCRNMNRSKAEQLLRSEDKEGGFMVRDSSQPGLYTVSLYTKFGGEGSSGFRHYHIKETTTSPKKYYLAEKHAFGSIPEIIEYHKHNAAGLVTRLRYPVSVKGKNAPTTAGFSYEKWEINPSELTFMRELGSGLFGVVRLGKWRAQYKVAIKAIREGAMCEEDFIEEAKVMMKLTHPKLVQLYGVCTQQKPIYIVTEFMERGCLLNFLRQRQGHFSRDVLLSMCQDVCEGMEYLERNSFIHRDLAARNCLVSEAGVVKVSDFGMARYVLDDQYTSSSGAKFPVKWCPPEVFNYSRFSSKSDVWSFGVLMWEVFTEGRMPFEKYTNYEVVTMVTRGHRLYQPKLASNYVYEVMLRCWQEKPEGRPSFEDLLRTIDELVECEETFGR
T16 sequence (Q9BVS4 whole entry): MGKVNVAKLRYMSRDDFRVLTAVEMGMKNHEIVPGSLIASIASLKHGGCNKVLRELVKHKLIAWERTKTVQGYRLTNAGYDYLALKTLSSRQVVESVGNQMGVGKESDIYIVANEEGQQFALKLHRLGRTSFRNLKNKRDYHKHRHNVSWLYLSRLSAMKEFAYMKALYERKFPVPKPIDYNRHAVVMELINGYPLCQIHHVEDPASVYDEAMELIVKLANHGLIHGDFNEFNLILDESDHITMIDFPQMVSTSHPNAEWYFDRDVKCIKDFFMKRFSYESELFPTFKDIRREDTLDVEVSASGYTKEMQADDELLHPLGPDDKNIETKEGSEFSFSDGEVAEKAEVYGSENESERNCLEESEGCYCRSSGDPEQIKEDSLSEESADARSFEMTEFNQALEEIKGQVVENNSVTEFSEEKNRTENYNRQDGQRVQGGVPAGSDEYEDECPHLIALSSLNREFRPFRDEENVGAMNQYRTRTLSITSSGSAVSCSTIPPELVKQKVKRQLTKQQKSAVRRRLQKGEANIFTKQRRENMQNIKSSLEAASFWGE
T22 sequence (P29597 897-1176 limits assumed): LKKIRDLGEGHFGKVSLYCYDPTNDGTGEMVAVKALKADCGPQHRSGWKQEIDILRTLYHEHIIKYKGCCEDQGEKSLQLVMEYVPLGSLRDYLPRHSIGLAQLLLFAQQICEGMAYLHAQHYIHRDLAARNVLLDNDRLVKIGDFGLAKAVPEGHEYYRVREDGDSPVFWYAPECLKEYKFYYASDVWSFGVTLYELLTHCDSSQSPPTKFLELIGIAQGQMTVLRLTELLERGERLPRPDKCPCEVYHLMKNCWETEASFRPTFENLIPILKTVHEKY
T3 sequence (Q16566 whole entry): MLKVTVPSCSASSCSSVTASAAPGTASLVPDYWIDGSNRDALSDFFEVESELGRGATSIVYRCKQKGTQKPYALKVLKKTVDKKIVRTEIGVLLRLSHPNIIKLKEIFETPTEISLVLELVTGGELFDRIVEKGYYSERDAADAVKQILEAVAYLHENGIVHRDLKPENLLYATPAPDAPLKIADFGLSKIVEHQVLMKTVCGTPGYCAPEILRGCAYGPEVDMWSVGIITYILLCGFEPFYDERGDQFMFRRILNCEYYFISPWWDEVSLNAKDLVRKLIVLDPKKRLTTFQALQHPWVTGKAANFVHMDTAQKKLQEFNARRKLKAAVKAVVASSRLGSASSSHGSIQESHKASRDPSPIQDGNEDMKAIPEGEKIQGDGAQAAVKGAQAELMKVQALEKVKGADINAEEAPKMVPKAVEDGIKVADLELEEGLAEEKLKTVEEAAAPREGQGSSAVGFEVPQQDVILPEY
T18 sequence (P57059 whole entry): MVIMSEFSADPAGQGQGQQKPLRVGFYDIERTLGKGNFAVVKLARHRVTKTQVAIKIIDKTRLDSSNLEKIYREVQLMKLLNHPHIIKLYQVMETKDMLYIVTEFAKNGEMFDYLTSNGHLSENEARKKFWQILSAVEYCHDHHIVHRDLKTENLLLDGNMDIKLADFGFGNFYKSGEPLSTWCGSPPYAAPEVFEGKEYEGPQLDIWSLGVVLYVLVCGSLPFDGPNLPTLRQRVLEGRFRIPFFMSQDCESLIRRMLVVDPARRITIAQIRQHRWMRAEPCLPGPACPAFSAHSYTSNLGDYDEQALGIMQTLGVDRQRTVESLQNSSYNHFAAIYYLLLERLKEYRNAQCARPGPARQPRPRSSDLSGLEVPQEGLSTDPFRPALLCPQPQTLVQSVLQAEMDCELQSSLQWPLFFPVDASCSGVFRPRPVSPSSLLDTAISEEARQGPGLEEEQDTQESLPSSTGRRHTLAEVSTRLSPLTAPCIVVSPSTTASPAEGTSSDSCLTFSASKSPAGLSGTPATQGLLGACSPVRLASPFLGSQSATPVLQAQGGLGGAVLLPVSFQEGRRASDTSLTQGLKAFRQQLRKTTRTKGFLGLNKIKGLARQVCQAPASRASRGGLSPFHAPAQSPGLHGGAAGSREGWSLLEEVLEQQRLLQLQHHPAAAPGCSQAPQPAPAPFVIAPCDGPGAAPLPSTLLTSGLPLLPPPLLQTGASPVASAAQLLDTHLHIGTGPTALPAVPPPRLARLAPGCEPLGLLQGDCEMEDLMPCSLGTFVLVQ
T7 sequence (P49840 whole entry): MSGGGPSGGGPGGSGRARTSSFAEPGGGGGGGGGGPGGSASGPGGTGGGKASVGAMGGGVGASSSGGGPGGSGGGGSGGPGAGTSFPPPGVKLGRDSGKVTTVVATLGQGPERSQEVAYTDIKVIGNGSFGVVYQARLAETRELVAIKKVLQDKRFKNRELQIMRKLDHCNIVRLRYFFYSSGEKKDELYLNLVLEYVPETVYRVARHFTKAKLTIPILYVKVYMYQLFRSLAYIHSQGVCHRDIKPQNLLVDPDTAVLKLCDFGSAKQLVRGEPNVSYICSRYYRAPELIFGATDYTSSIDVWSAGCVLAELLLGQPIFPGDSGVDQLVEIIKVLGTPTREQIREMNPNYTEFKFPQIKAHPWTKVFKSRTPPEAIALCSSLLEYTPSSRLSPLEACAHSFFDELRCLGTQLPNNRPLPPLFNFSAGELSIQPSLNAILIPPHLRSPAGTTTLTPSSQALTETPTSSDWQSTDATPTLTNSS
T14 sequence (Q9H4B4 whole entry): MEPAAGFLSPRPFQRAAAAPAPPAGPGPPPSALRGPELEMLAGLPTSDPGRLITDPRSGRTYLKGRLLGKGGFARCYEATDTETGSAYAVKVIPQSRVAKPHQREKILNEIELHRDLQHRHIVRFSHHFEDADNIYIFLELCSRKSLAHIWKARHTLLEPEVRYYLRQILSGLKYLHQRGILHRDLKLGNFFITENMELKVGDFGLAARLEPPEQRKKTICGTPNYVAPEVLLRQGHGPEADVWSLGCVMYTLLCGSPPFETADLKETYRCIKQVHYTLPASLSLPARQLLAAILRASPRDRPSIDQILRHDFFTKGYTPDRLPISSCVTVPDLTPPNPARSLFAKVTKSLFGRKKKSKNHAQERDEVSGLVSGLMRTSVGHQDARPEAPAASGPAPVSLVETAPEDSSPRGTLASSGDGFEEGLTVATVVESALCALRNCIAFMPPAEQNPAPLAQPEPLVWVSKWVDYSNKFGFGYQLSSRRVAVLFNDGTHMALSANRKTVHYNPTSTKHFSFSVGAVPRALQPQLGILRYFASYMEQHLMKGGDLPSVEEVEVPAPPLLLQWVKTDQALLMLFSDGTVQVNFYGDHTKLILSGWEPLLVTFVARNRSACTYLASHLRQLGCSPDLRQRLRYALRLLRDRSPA
T17 sequence (O75582 426-687 limits assumed): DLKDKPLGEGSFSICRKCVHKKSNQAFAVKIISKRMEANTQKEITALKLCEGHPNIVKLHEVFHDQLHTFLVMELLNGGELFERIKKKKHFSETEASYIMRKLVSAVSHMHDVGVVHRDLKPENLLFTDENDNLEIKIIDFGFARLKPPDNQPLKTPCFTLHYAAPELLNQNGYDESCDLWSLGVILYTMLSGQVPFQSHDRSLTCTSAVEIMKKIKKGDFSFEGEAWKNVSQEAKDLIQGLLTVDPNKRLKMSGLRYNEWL

**Q.** For C#Cc1cccc(Nc2ncnc3cc(OC)c(OCCCN4CCOCC4)cc23)c1 [NRC-2694, N-(3-ethylnylphenyl)-7-methoxy-6-[3-(4-morpholinyl)propoxy]-4-quinazolinamine], which “% Ctrl @ 10000 nM” value (ACVR1) is on record?
**A.** 61 % Ctrl

**Q.** And the “% Ctrl @ 10000 nM” value (AKT3)?
**A.** 66 % Ctrl

**Q.** What about the “% Ctrl @ 10000 nM” value (CAMK4) of the same molecule?
**A.** 92 % Ctrl

**Q.** And the “% Ctrl @ 10000 nM” value (CDK11)?
**A.** 87 % Ctrl

**Q.** What about the “% Ctrl @ 10000 nM” value (ERBB2) of the same molecule?
**A.** 31 % Ctrl

**Q.** What about the “% Ctrl @ 10000 nM” value (FGFR3) of the same molecule?
**A.** 100 % Ctrl

**Q.** What about the “% Ctrl @ 10000 nM” value (GSK3A) of the same molecule?
**A.** 75 % Ctrl

**Q.** And the “% Ctrl @ 10000 nM” value (HIPK1)?
**A.** 70 % Ctrl

**Q.** And the “% Ctrl @ 10000 nM” value (IKK-alpha)?
**A.** 41 % Ctrl

**Q.** What about the “% Ctrl @ 10000 nM” value (LIMK1) of the same molecule?
**A.** 62 % Ctrl

**Q.** What about the “% Ctrl @ 10000 nM” value (MERTK) of the same molecule?
**A.** 48 % Ctrl

**Q.** What about the “% Ctrl @ 10000 nM” value (NEK9) of the same molecule?
**A.** 85 % Ctrl

**Q.** What about the “% Ctrl @ 10000 nM” value (PIK3CD) of the same molecule?
**A.** 89 % Ctrl

**Q.** What about the “% Ctrl @ 10000 nM” value (PLK3) of the same molecule?
**A.** 97 % Ctrl

**Q.** And the “% Ctrl @ 10000 nM” value (RET (V804M))?
**A.** 100 % Ctrl

**Q.** And the “% Ctrl @ 10000 nM” value (RIOK2)?
**A.** 43 % Ctrl

**Q.** And the “% Ctrl @ 10000 nM” value [1]?
**A.** 57 % Ctrl

**Q.** And the “% Ctrl @ 10000 nM” value (SIK)?
**A.** 53 % Ctrl

**Q.** And the “% Ctrl @ 10000 nM” value (TEC)?
**A.** 90 % Ctrl

**Q.** What about the “% Ctrl @ 10000 nM” value (TIE1) of the same molecule?
**A.** 52 % Ctrl

**Q.** What about the “% Ctrl @ 10000 nM” value (TTK) of the same molecule?
**A.** 48 % Ctrl

**Q.** What about the “% Ctrl @ 10000 nM” value [2] of the same molecule?
**A.** 97 % Ctrl
